Experimental data: the supplement of paper PMC10733146

How the values were obtained:
Assay in all cases: viability relative to DMSO control (fraction); higher = less drug effect (more viable cells)
Details in all cases: 48 h
[1] = test system: primary AML patient cells (S091)
Summary of the method: (§1)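 Viability was quantified by CellTiter-Glo luminescence and related to the median of 16 inner DMSO wells. Before that, primary mononuclear tumour cells, fresh or cryopreserved and Ficoll-isolated from blood or bone marrow or prepared from processed lymph node, were plated at 4 × 10^4 cells per well in 384-well plates containing pre-plated compounds at five concentrations, one well each. Plates were incubated in RPMI-1640 with penicillin/streptomycin, L-glutamine and human serum at 37 °C and 5% CO2 for 48 h.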

[2] = test system: primary AML patient cells (S011)
Summary of the method: as §1

[3] = test system: primary AML patient cells (S081)
Summary of the method: as §1

[4] = test system: primary T-PLL patient cells (S008)
Summary of the method: as §1

[5] = test system: primary AML patient cells (S037)
Summary of the method: as §1

[6] = test system: primary FL patient cells (S022)
Summary of the method: as §1

[7] = test system: primary AML patient cells (S055)
Summary of the method: as §1

[8] = test system: primary ALL patient cells (S048)
Summary of the method: as §1

[9] = test system: primary AML patient cells (S002)
Summary of the method: as §1

[10] = test system: primary AML patient cells (S021)
Summary of the method: as §1

[11] = test system: primary DLBCL patient cells (S049)
Summary of the method: as §1

[12] = test system: primary T-NHL patient cells (S058)
Summary of the method: as §1

[13] = test system: primary MCL patient cells (S068)
Summary of the method: as §1

[14] = test system: primary AML patient cells (S019)
Summary of the method: as §1

[15] = test system: primary AML patient cells (S089)
Summary of the method: as §1

[16] = test system: primary AML patient cells (S007)
Summary of the method: as §1

[17] = test system: primary DLBCL patient cells (S076)
Summary of the method: as §1

O=C(Nc1nc2ccccc2n1CCN1CCOCC1)c1cccc([N+](=O)[O-])c1 [IRAK-1/4 INHIBITOR I]
viability ([1]; 0.016 µM): 0.911 | viability ([1]; 0.08 µM): 0.936 | viability ([1]; 0.4 µM): 0.951 | viability ([1]; 2 µM): 0.905 | viability ([1]; 10 µM): 0.798 | viability ([2]; 0.016 µM): 0.949 | viability ([2]; 0.08 µM): 0.934 | viability ([2]; 0.4 µM): 0.972 | viability ([2]; 2 µM): 1.11 | viability ([2]; 10 µM): 0.878 | viability ([3]; 0.016 µM): 0.864 | viability ([3]; 0.08 µM): 0.93 | viability ([3]; 0.4 µM): 0.907 | viability ([3]; 2 µM): 0.93 | viability ([3]; 10 µM): 0.915 | viability ([4]; 0.016 µM): 0.933 | viability ([4]; 0.08 µM): 1 | viability ([4]; 0.4 µM): 0.935 | viability ([4]; 2 µM): 0.954 | viability ([4]; 10 µM): 1.03 | viability ([5]; 0.016 µM): 0.878 | viability ([5]; 0.08 µM): 0.933 | viability ([5]; 0.4 µM): 0.895 | viability ([5]; 2 µM): 0.885 | viability ([5]; 10 µM): 1.02 | viability ([6]; 0.016 µM): 0.887 | viability ([6]; 0.08 µM): 0.974 | viability ([6]; 0.4 µM): 0.885 | viability ([6]; 2 µM): 0.915 | viability ([6]; 10 µM): 0.913 | viability ([7]; 0.016 µM): 0.985 | viability ([7]; 0.08 µM): 0.994 | viability ([7]; 0.4 µM): 1.01 | viability ([7]; 2 µM): 1.02 | viability ([7]; 10 µM): 0.958 | viability ([8]; 0.016 µM): 0.726 | viability ([8]; 0.08 µM): 0.836 | viability ([8]; 0.4 µM): 0.811 | viability ([8]; 2 µM): 0.834 | viability ([8]; 10 µM): 0.808 | viability ([9]; 0.016 µM): 0.955 | viability ([9]; 0.08 µM): 1.05 | viability ([9]; 0.4 µM): 0.901 | viability ([9]; 2 µM): 0.953 | viability ([9]; 10 µM): 1.03 | viability ([10]; 0.016 µM): 0.924 | viability ([10]; 0.08 µM): 0.954 | viability ([10]; 0.4 µM): 0.907 | viability ([10]; 2 µM): 0.735 | viability ([10]; 10 µM): 0.819 | viability ([11]; 0.016 µM): 0.936 | viability ([11]; 0.08 µM): 0.955 | viability ([11]; 0.4 µM): 0.834 | viability ([11]; 2 µM): 0.833 | viability ([11]; 10 µM): 0.821 | viability ([12]; 0.016 µM): 1.05 | viability ([12]; 0.08 µM): 1.25 | viability ([12]; 0.4 µM): 1.02 | viability ([12]; 2 µM): 1.07 | viability ([12]; 10 µM): 1.27 | viability ([13]; 0.016 µM): 0.977 | viability ([13]; 0.08 µM): 0.997 | viability ([13]; 0.4 µM): 1.13 | viability ([13]; 2 µM): 1.27 | viability ([13]; 10 µM): 1.41 | viability ([14]; 0.016 µM): 0.915 | viability ([14]; 0.08 µM): 1.04 | viability ([14]; 0.4 µM): 0.913 | viability ([14]; 2 µM): 0.867 | viability ([14]; 10 µM): 0.909 | viability ([15]; 0.016 µM): 0.772 | viability ([15]; 0.08 µM): 0.973 | viability ([15]; 0.4 µM): 0.849 | viability ([15]; 2 µM): 1 | viability ([15]; 10 µM): 0.872 | viability ([16]; 0.016 µM): 1.01 | viability ([16]; 0.08 µM): 0.989 | viability ([16]; 0.4 µM): 0.788 | viability ([16]; 2 µM): 0.469 | viability ([16]; 10 µM): 0.292 | viability ([17]; 0.016 µM): 0.94 | viability ([17]; 0.08 µM): 1.09 | viability ([17]; 0.4 µM): 1.01 | viability ([17]; 2 µM): 1 | viability ([17]; 10 µM): 1.11
